Measurements from PubChem BioAssay (NCI).
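Grown in 96-well plates, cells were treated for 48 hours with each compound at five concentrations. Insufficient inhibition: endpoint recorded as highest concentration tested. The concentration for full growth arrest is given as TGI.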

Key:
Assay in all cases: NCI-60 cell line screen, 48 h
[1] = system: SN12C renal
[2] = system: COLO 205 colon
[3] = system: RXF 393 renal
[4] = system: U251 CNS
[5] = system: ACHN renal
[6] = system: HCC-2998 colon
[7] = system: NCI-H522 lung
[8] = system: K-562 leukemia
[9] = system: KM12 colon
[10] = system: UACC-257 melanoma
[11] = system: SK-MEL-5 melanoma
[12] = system: DU-145 prostate
[13] = system: SNB-75 CNS
[14] = system: MCF7 breast
[15] = system: MDA-MB-231 breast
[16] = system: SF-268 CNS
[17] = system: MDA-N
[18] = system: SF-295 CNS
[19] = system: TK-10 renal
[20] = system: SW-620 colon
[21] = system: M14 melanoma
[22] = system: HT29 colon
[23] = system: BT-549 breast
[24] = system: NCI-H23 lung
[25] = system: IGROV1 ovarian
[26] = system: MDA-MB-435
[27] = system: LOX IMVI melanoma
[28] = system: NCI-H460 lung
[29] = system: HS 578T breast
[30] = system: CCRF-CEM leukemia
[31] = system: HL-60(TB) leukemia
[32] = system: 786-0 renal
[33] = system: OVCAR-8 ovarian
[34] = system: HOP-92 NSCLC
[35] = system: OVCAR-3 ovarian
[36] = system: UO-31 renal
[37] = system: NCI-H226 lung
[38] = system: A549 NSCLC
[39] = system: HCT-15 colon
[40] = system: UACC-62 melanoma
[41] = system: MALME-3M melanoma
[42] = system: OVCAR-4 ovarian
[43] = system: SR leukemia
[44] = system: T-47D breast
[45] = system: SNB-19 CNS
[46] = system: OVCAR-5 ovarian
[47] = system: SK-MEL-2 melanoma
[48] = system: RPMI-8226 leukemia
[49] = system: SK-MEL-28 melanoma

Question: Which TGI [1] does the source give for `CCOC(=O)c1sc2c(c1O)c(=O)n(-c1ccccc1)c(=S)n2-c1ccccc1` here?
Answer: > 100 µM

Question: What about the TGI [2] of the same molecule?
Answer: > 100 µM

Question: What about the TGI [3] of the same molecule?
Answer: > 100 µM

Question: What about the TGI [4] of the same molecule?
Answer: > 100 µM

Question: What about the TGI [5] of the same molecule?
Answer: > 100 µM

Question: And the TGI [6]?
Answer: > 100 µM

Question: What about the TGI [7] of the same molecule?
Answer: > 100 µM

Question: What about the TGI [8] of the same molecule?
Answer: > 100 µM

Question: And the TGI [9]?
Answer: > 100 µM

Question: And the TGI [10]?
Answer: > 100 µM

Question: And the TGI [11]?
Answer: > 100 µM

Question: And the TGI [12]?
Answer: > 100 µM

Question: And the TGI [13]?
Answer: > 100 µM

Question: What about the TGI [14] of the same molecule?
Answer: > 100 µM

Question: What about the TGI [15] of the same molecule?
Answer: > 100 µM

Question: What about the TGI [16] of the same molecule?
Answer: > 100 µM

Question: And the TGI [17]?
Answer: > 100 µM

Question: And the TGI [18]?
Answer: > 100 µM

Question: And the TGI [19]?
Answer: > 100 µM

Question: What about the TGI [20] of the same molecule?
Answer: > 100 µM

Question: What about the TGI [21] of the same molecule?
Answer: > 100 µM

Question: What about the TGI [22] of the same molecule?
Answer: > 100 µM

Question: What about the TGI [23] of the same molecule?
Answer: > 100 µM

Question: And the TGI [24]?
Answer: > 100 µM

Question: And the TGI [25]?
Answer: > 100 µM

Question: What about the TGI [26] of the same molecule?
Answer: > 100 µM

Question: And the TGI [27]?
Answer: > 100 µM

Question: And the TGI [28]?
Answer: > 100 µM

Question: What about the TGI [29] of the same molecule?
Answer: > 100 µM

Question: What about the TGI [30] of the same molecule?
Answer: > 100 µM

Question: What about the TGI [31] of the same molecule?
Answer: > 100 µM

Question: What about the TGI [32] of the same molecule?
Answer: > 100 µM

Question: And the TGI [33]?
Answer: > 100 µM

Question: And the TGI [34]?
Answer: > 100 µM

Question: And the TGI [35]?
Answer: > 100 µM

Question: And the TGI [36]?
Answer: > 100 µM

Question: And the TGI [37]?
Answer: > 100 µM

Question: What about the TGI [38] of the same molecule?
Answer: > 100 µM

Question: What about the TGI [39] of the same molecule?
Answer: > 100 µM

Question: And the TGI [40]?
Answer: > 100 µM

Question: What about the TGI [41] of the same molecule?
Answer: > 100 µM

Question: What about the TGI [42] of the same molecule?
Answer: > 100 µM

Question: What about the TGI [43] of the same molecule?
Answer: 46.9 µM

Question: What about the TGI [44] of the same molecule?
Answer: > 100 µM

Question: What about the TGI [45] of the same molecule?
Answer: > 100 µM

Question: What about the TGI [46] of the same molecule?
Answer: > 100 µM

Question: And the TGI [47]?
Answer: > 100 µM

Question: What about the TGI [48] of the same molecule?
Answer: > 100 µM

Question: And the TGI [49]?
Answer: > 100 µM
